In article PMC12470768, “Mentha rotundifolia, a Source of Amoebicidal Agents Against Naegleria fowleri” (International Journal of Molecular Sciences, 2025):

Legend:
Type in all cases: cell-based, Naegleria fowleri
[1] = test system: N. fowleri ATCC® 30808™ cyst stage; test: In vitro cysticidal activity against N. fowleri cysts (alamarBlue), strain ATCC 30808
Protocol: Following the assays against trophozoites, the compounds were further evaluated for their activity against the cyst stage of N. fowleri (ATCC® 30808™ and ATCC® 30215™). To induce cyst formation, the trophozoites were centrifuged, resuspended in MYAS medium, and incubated under slight agitation at room temperature for 10 days. After this, mature cysts were harvested, pretreated with 0.5% SDS, and seeded in a 96-well microtiter plate at 2 × 10^5 cells/mL. The drugs were tested in serial dilutions, and after 24 h of incubation at 37 °C, the medium was replaced with fresh Bactocasitone medium. The colorimetric alamarBlue® assay was used to assess cyst viability, with 10 µL of reagent added to each well. The plates were incubated for an additional 72 h at 37 °C, and fluorescence was measured using the EnSpire® Multimode Plate Reader (PerkinElmer, Madrid, Spain). The results were compared to a negative control (untreated cysts) and a positive control (amphotericin B and miltefosine). The IC50 values were determined through nonlinear regression analysis.

N. fowleri trophozoites [2] = test: Chromatin condensation (Hoechst 33342 / propidium iodide staining); conditions: IC90, 24 h
Protocol: (§1) To evaluate the induction of PCD, N. fowleri strains ATCC® 30808™ and ATCC® 30215™ were treated with the IC90 concentration of the compounds 7 and 10 for 24 h at 37 °C. After incubation, specific fluorescent markers were used to assess various detectable metabolic events, following the manufacturers’ instructions for each assay. Amphotericin B was used as a positive control, and untreated amoebae served as a negative control. Fluorescence imaging was performed using EVOS M5000 Cell Imaging System (Life Technologies, Madrid, Spain) and confocal microscope Leica DMI 4000 B equipped with Leica Application Suite X software version 3.5.5.19976 and Leica HC PL APO 63x/1.40 OIL CS2 objective (Leica Microsystems, Wetzlar, Germany). The fluorescence obtained was expressed as mean ± standard deviation from at least three independent experiments.
To evaluate the chromatin condensation, cells were stained with Hoechst 33,342 (1 µM) and propidium iodide (PI) (1 µM) for 20 min in the dark. Hoechst 33,342 binds to condensed chromatin in apoptotic cells and emits blue fluorescence, while PI enters cells with compromised membranes, indicative of late apoptosis or necrosis, and binds to DNA, emitting red fluorescence. […] Untreated cells were included as negative controls to establish baseline fluorescence levels.

[3] = test system: N. fowleri ATCC® 30215™ trophozoites; test: In vitro amoebicidal activity against N. fowleri trophozoites (alamarBlue), strain ATCC 30215; conditions: trophozoite stage
Protocol: (§2) The in vitro activity of the tested compounds against Naegleria fowleri trophozoites was evaluated using two clinical strains obtained from the American Type Culture Collection (ATCC® 30808™ and ATCC® 30215™). Trophozoites were cultured axenically at 37 °C in 2% (w/v) Bactocasitone medium (Thermo Fisher Scientific, Madrid, Spain), supplemented with 10% (v/v) fetal bovine serum (FBS), […] penicillin G sodium salt, and 0.5 mg/mL streptomycin sulfate (Sigma-Aldrich, Madrid, Spain). For cytotoxicity assessment, murine macrophages from the J774A.1 cell line (ATCC® TIB-67) were cultured in Dulbecco’s Modified Eagle’s Medium (DMEM) supplemented with 10% (v/v) FBS and 10 μg/mL gentamicin sulfate (Sigma-Aldrich, Madrid, Spain). The macrophages were maintained at 37 °C in a 5% CO2 atmosphere.
(§3) The trophocidal activity of the compounds was evaluated using the alamarBlue® colorimetric assay. N. fowleri trophozoites were seeded in duplicate in a 96-well microtiter plate at a concentration of 2 × 10^5 cells/mL and incubated for adhesion in Bactocasitone medium (2% v/w) (Thermo Fisher Scientific, Madrid, Spain), supplemented with 10% (v/v) fetal bovine serum (FBS), 0.3% penicillin G sodium salt, and 0.5 mg/mL streptomycin sulfate (Sigma-Aldrich, Madrid, Spain). Different concentrations of the evaluated compounds, prepared in fresh Bactocasitone medium, were added to the wells (50 µL per well). The negative control consisted of trophozoites incubated with the medium alone. After adding 10 µL of alamarBlue® reagent, the plates were incubated at 37 °C for 48 h with slight agitation. The data were analyzed using nonlinear regression with GraphPad Prism 9 software to determine the IC50 and IC90 values, which were then used for further studies on PCD [10].

N. fowleri trophozoites [4] = test: Mitochondrial membrane potential (JC-1); conditions: IC90, 24 h; compound 7 on ATCC 30808, compound 10 on ATCC 30215
Protocol: as §1
Mitochondrial membrane potential (ΔΨm) was assessed using the JC-1 dye (1,1′,3,3′-tetraethyl-5,5′,6,6′-tetrachloroimidacarbocyanine iodide; Cayman Chemical, Madrid); following treatment, cells were harvested by centrifugation at 2500 rpm for 10 min and resuspended in JC-1 assay buffer. […] In cells with depolarized mitochondria, JC-1 remains in its monomeric form, emitting green fluorescence (emission at ~535 nm), indicating mitochondrial damage and a loss of ΔΨm.

N. fowleri trophozoites [5] = test: Plasma membrane permeability (SYTOX Green); conditions: IC90, 24 h; compound 7 on ATCC 30808, compound 10 on ATCC 30215, amphotericin B on both
Protocol: as §1
After treatment, SYTOX™ Green nucleic acid stain (Life Technologies, Madrid, Spain) was added to each well at a final concentration of 1 μg/mL and incubated for 15 min in the dark. […] In contrast, viable cells with intact membranes exclude the dye and remain non-fluorescent. Untreated trophozoites were used as negative controls.

N. fowleri trophozoites [6] = test: Autophagic vacuole formation (monodansylcadaverine); conditions: IC90, 24 h
Protocol: as §1
Autophagy is a vital cellular process involved in the degradation and recycling of intracellular components, often activated in response to drug exposure. To evaluate autophagic activity, trophozoites were stained with monodansylcadaverine (MDC) (Sigma-Aldrich, St. Louis, MO, USA) during 30 min in the dark. […] The dye emits a characteristic cyan-blue fluorescence, allowing the detection and qualitative analysis of autophagic vacuoles in treated cells.

[7] = test system: N. fowleri ATCC® 30808™ trophozoites; test: In vitro amoebicidal activity against N. fowleri trophozoites (alamarBlue), strain ATCC 30808
Protocol: as §2, §3

[8] = selectivity index vs murine macrophages J774

COC(=O)[C@]12CC[C@@H](C)[C@H](C)C1C1=CCC3[C@@]4(C)CC[C@H](OC(=O)CCC(=O)O)C(C)(C)C4CC[C@@]3(C)[C@]1(C)CC2 (stereo partly drawn) [Compound 7, 3-O-(Hemisuccinyl)-methyl ursolate]
IC50 ([1]; Naegleria fowleri, ATCC30808, mean ± SD): 36.6 ± 1.49 µM
N. fowleri ATCC 30808 SI (CC50/IC50), cyst stage [1, 8]: 4.78
propidium iodide (red) fluorescence (N. fowleri trophozoites [2]; compound 7 on ATCC 30808): strong red fluorescence
chromatin condensation (Hoechst 33342 fluorescence) (N. fowleri trophozoites [2]; compound 7 on ATCC 30808, compound 10 on ATCC 30215, amphotericin B on both): clear chromatin condensation
IC50 ([3]; Naegleria fowleri, ATCC30215, 48 h, mean ± SD): 29.7 ± 1.59 µM
N. fowleri ATCC 30215 SI (CC50/IC50) [3, 8]: >5.90
mitochondrial membrane potential (JC-1) (N. fowleri trophozoites [4]): marked decrease in mitochondrial membrane potential
plasma membrane integrity (SYTOX Green fluorescence) (N. fowleri trophozoites [5]): significant membrane disruption
autophagic vesicles (MDC staining) (N. fowleri trophozoites [6]): autophagosome formation
IC50 ([7]; Naegleria fowleri, ATCC30808, 48 h, trophozoite stage, 48 h, mean ± SD): 28.7 ± 1.8 µM
IC90 ([7]; Naegleria fowleri, ATCC30808, trophozoites, compound 7 used on ATCC 30808 (Figure 8 legend)): 39.5 µM
N. fowleri ATCC 30808 SI (CC50/IC50) ([7]; trophozoite stage, selectivity index vs murine macrophages J774): >6.11
